Measured values reported in patent publication US12643871B2, “Aryl formamide compound containing chiral sulfur oxide or salt thereof, preparation method, herbicidal composition and use thereof” (Qingdao Kingagroot Chemical Compound Co., Ltd., priority 2019, dated 2026).

Columns and labels:
Format in all cases: in vivo
[1] = test system: key weeds such as Digitaria sanguinalis, Leptochloa chinensis; assay: Comparison experiment (post-emergence, Tables 4-7), herbicidal activity on weeds not listed separately
Source text: The above growth control rates are fresh weight control rates.
Experiment on weeding effect in post-emergence stage: monocotyledonous and dicotyledonous weed seeds (Descurainia sophia, Capsella bursa-pastoris, Galium aparine, Stellaria media, Lithospermum arvense, Rorippa indica, Alopecurus aequalis, Beckmannia syzigachne, Sclerochloa dura, Phleum paniculatum, Bromus japonicus, Aegilops tauschii, Phalaris arundinacea, Amaranthus retroflexus, Chenopodiaceae, Commelina communis, Sonchus arvensis, convolvulus arvensis, Cirsium setosum, Solanum nigrum, Acalypha australis, Digitaria sanguinalis, Echinochloa crusgalli, Setaria viridis, Setaria glauca, Leptochloa chinensis, Monochoria vaginalis, Sagittaria trifolia, Scirpus juncoides, Cyperus rotundus, Cyperus iria, Cyperus difformis, Fimbristylis, Portulaca oleracea, Xanthium sibiricum, Pharbitis nil) and major crop seeds (wheat, corn, rice, soybean, cotton, oilseed rape, millet, sorghum, potato, sesame, ricinus) were placed in plastic pots filled with soil, then covered with 0.5-2 cm of soil, allowed to grow in a good greenhouse environment. After 2 weeks of sowing, the test plants were treated in the 2 leaf stage. The tested compounds of the present invention were respectively dissolved in acetone, then added with Tween 80 and 1.5 liter/ha of emulsifiable concentrate of methyl oleate as synergist, diluted with a certain amount of water to obtain a solution with a certain concentration, and sprayed with a spray tower onto the plants. After the application, the plants were cultured for 15 days in the greenhouse, and then the experimental results of the weeding were counted. The doses of the used compounds were 500, 250, 125, 60, 30, 15 g/ha, and the averages were obtained by repeating for three times.
If there is no clear marker, the post-seedling test conditions are the same as above, and the experimental results are shown in Tables 4-7.

Digitaria sanguinalis = assay: Weeding effect in post-emergence stage; conditions: 250 g/ha; 2 leaf stage; 15 days after application; fresh weight control rate
In short: (§1)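 Two-leaf-stage pot plants, spray-tower application at 500/250/125/60/30/15 g/ha with methyl oleate EC synergist; fresh weight control level (0–5) read at 15 days post-treatment, three replicates averaged.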

Abutilon theophrasti = assay: Weeding effect in post-emergence stage; conditions: 250 g/ha; 2 leaf stage; 15 days after application; fresh weight control rate
In short: as §1

Amaranthus retroflexus = assay: Weeding effect in post-emergence stage; conditions: 250 g/ha; 2 leaf stage; 15 days after application; fresh weight control rate
In short: as §1

Setaria viridis = assay: Weeding effect in post-emergence stage; conditions: 250 g/ha; 2 leaf stage; 15 days after application; fresh weight control rate
In short: as §1

Echinochloa crusgali = assay: Weeding effect in post-emergence stage; conditions: 250 g/ha; 2 leaf stage; 15 days after application; fresh weight control rate
In short: as §1

[2] = doses of 125, 60, 30, 15 g/ha, X replaced by other five membered rings

Row | Compound | herbicidal activity and/or crop safety compared with the corresponding racemate or S configuration ([1]; no dose stated) | weeding effect in post-emergence stage, activity level (growth control rate), Digitaria sanguinalis (Digitaria sanguinalis) | weeding effect in post-emergence stage, activity level (growth control rate), Abutilon theophrasti (Abutilon theophrasti) | weeding effect in post-emergence stage, activity level (growth control rate), Amaranthus retroflexus (Amaranthus retroflexus) | weeding effect in post-emergence stage, activity level (growth control rate), Setaria viridis (Setaria viridis) | weeding effect in post-emergence stage, activity level (growth control rate), Echinochloa crusgali (Echinochloa crusgali) | herbicidal activity and/or crop safety compared with the corresponding racemate or S configuration [1, 2] | herbicidal activity and/or crop safety compared with the corresponding racemate or S configuration ([1]; dose of 120, 48, 30, 24 g/ha)
1 | CC[S@@+]([O-])c1c(C(F)(F)F)ccc(C(=O)Nc2nnc(C)o2)c1OC [Compound 306] | better herbicidal activity and/or crop safety | 5 (Level 5: growth control rate is above 85%) | 5 (Level 5: growth control rate is above 85%) | 5 (Level 5: growth control rate is above 85%) | 5 (Level 5: growth control rate is above 85%) | 5 (Level 5: growth control rate is above 85%) |  | 
2 | CCCC[S@@+]([O-])c1c(C(F)(F)F)ccc(C(=O)Nc2nnc(C)o2)c1OC [Compound 308] | better herbicidal activity and/or crop safety | 5 (Level 5: growth control rate is above 85%) | 5 (Level 5: growth control rate is above 85%) | 5 (Level 5: growth control rate is above 85%) | 5 (Level 5: growth control rate is above 85%) | 5 (Level 5: growth control rate is above 85%) |  | 
3 | COc1c(C(=O)Nc2nnc(C)o2)ccc(C(F)(F)F)c1[S@+]([O-])CC1CC1 [Compound 310] | better herbicidal activity and/or crop safety | 5 (Level 5: growth control rate is above 85%) | 5 (Level 5: growth control rate is above 85%) | 5 (Level 5: growth control rate is above 85%) | 5 (Level 5: growth control rate is above 85%) | 5 (Level 5: growth control rate is above 85%) |  | 
4 | C=CC[S@@+]([O-])c1c(C(F)(F)F)ccc(C(=O)Nc2nnc(C)o2)c1OC [Compound 311] | better herbicidal activity and/or crop safety | 5 (Level 5: growth control rate is above 85%) | 5 (Level 5: growth control rate is above 85%) | 5 (Level 5: growth control rate is above 85%) | 5 (Level 5: growth control rate is above 85%) | 5 (Level 5: growth control rate is above 85%) |  | 
5 | COc1c(C(=O)Nc2nnc(C)o2)ccc(C(F)(F)F)c1[S@+]([O-])CC(C)F (some centres unmarked) [Compound 321] | better herbicidal activity and/or crop safety | 5 (Level 5: growth control rate is above 85%) | 5 (Level 5: growth control rate is above 85%) | 5 (Level 5: growth control rate is above 85%) | 5 (Level 5: growth control rate is above 85%) | 5 (Level 5: growth control rate is above 85%) |  | 
6 | COc1c(C(=O)Nc2nnc(C)o2)ccc(C(F)(F)F)c1[S@+]([O-])CCON=C(C)C [Compound 348] | better herbicidal activity and/or crop safety | 5 (Level 5: growth control rate is above 85%) | 5 (Level 5: growth control rate is above 85%) | 5 (Level 5: growth control rate is above 85%) | 5 (Level 5: growth control rate is above 85%) | 5 (Level 5: growth control rate is above 85%) |  | 
7 | CCC[S@@+]([O-])c1c(C(F)(F)F)ccc(C(=O)Nc2nnnn2C)c1F [Compound 379] |  | 5 (Level 5: growth control rate is above 85%) | 5 (Level 5: growth control rate is above 85%) | 5 (Level 5: growth control rate is above 85%) | 5 (Level 5: growth control rate is above 85%) | 5 (Level 5: growth control rate is above 85%) | better herbicidal activity and/or crop safety | 
8 | CC(C)C[S@@+]([O-])c1c(C(F)(F)F)ccc(C(=O)Nc2nnnn2C)c1F [Compound 380] |  | 5 (Level 5: growth control rate is above 85%) | 5 (Level 5: growth control rate is above 85%) | 5 (Level 5: growth control rate is above 85%) | 5 (Level 5: growth control rate is above 85%) | 5 (Level 5: growth control rate is above 85%) | better herbicidal activity and/or crop safety | 
9 | CSc1c(C(=O)Nc2nnc(C)o2)ccc(C(F)(F)F)c1[S@+]([O-])C(C)C [Compound 549] |  | 5 (Level 5: growth control rate is above 85%) | 5 (Level 5: growth control rate is above 85%) | 5 (Level 5: growth control rate is above 85%) |  | 5 (Level 5: growth control rate is above 85%) |  | better herbicidal activity and/or crop safety
10 | CCCC[S@@+]([O-])c1c(C(F)(F)F)ccc(C(=O)Nc2nnc(C)o2)c1SC [Compound 550] |  | 5 (Level 5: growth control rate is above 85%) | 5 (Level 5: growth control rate is above 85%) | 5 (Level 5: growth control rate is above 85%) | 5 (Level 5: growth control rate is above 85%) | 5 (Level 5: growth control rate is above 85%) |  | better herbicidal activity and/or crop safety
11 | C=CC[S@@+]([O-])c1c(C(F)(F)F)ccc(C(=O)Nc2nnc(C)o2)c1SC [Compound 552] |  | 5 (Level 5: growth control rate is above 85%) | 5 (Level 5: growth control rate is above 85%) | 5 (Level 5: growth control rate is above 85%) | 5 (Level 5: growth control rate is above 85%) | 5 (Level 5: growth control rate is above 85%) |  | better herbicidal activity and/or crop safety
